According to US20070048250A1, “Methods of treating concomitant constipation in a cancer treatment regimen including imexon” (AmpliMed Corporation, priority 2005, published 2007):

System: patients
Experiment: clinical study of imexon to treat cancer: adverse events (daily dose 5 consecutive days per week, every other week, four-week cycle)
Type: in vivo, human
Excerpt: As described hereinbefore, it has been found, unexpectedly, that the administration of a pharmaceutical composition comprising imexon induces constipation in a large percentage of patients. Of forty nine (49) patients taking part in a clinical study investigating the use of imexon to treat cancer, thirty one (31) patients (63.3%) were reported to have had the gastrointestinal toxicity of constipation in association with their treatment with imexon. […] All other observed gastrointestinal adverse events individually accounted for less than 5% of total gastrointestinal adverse events.
Of the forty nine (49) patients treated in the clinical study, thirty nine (39) received imexon at a dose equal to or greater than 140 mg/m^2, thirty three (33) received imexon at a dose equal to or greater than 185 mg/m^2, and thirty (30) received imexon at a dose equal to or greater than 245 mg/m^2.
Of these seventy three (73) constipation adverse events, fifty two (52) of the adverse events (71.2%) were characterized as “possibly,” “probably,” or “definitely related to the treatment” of the patient with imexon.

[1] = 20 mg/m^2, relationship Not Related
[2] = 80 mg/m^2, relationship Not Related
[3] = 105 mg/m^2, relationship Not Related
[4] = 140 mg/m^2, relationship Not Related
[5] = 140 mg/m^2, relationship Probable
[6] = 140 mg/m^2, relationship Unlikely
[7] = 185 mg/m^2, relationship Not Related
[8] = 185 mg/m^2, relationship Possible
[9] = 185 mg/m^2, relationship Probable
[10] = 245 mg/m^2, relationship Not Related
[11] = 245 mg/m^2, relationship Possible
[12] = 245 mg/m^2, relationship Probable
[13] = 325 mg/m^2, relationship Possible
[14] = 325 mg/m^2, relationship Probable
[15] = 430 mg/m^2, relationship Possible
[16] = 430 mg/m^2, relationship Probable
[17] = 430 mg/m^2, relationship Unlikely
[18] = 570 mg/m^2, relationship Definite

N=C1NC(=O)N2CC12 (stereo not drawn) [imexon, 4-imino-1,3-diazabicyclo[3.1.0]-hexan-2-one]
0: Constipation Adverse Events, Total (20 mg/m^2, relationship Definite) | Constipation Adverse Events, Total (20 mg/m^2, relationship Possible) | Constipation Adverse Events, Total (20 mg/m^2, relationship Probable) | Constipation Adverse Events, Total (20 mg/m^2, relationship Unlikely) | Constipation Adverse Events, Total (40 mg/m^2, relationship Definite) | Constipation Adverse Events, Total (40 mg/m^2, relationship Not Related) | Constipation Adverse Events, Total (40 mg/m^2, relationship Possible) | Constipation Adverse Events, Total (40 mg/m^2, relationship Probable) | Constipation Adverse Events, Total (40 mg/m^2, relationship Unlikely) | Constipation Adverse Events, Total (80 mg/m^2, relationship Definite) | Constipation Adverse Events, Total (80 mg/m^2, relationship Possible) | Constipation Adverse Events, Total (80 mg/m^2, relationship Probable) | Constipation Adverse Events, Total (80 mg/m^2, relationship Unlikely) | Constipation Adverse Events, Total (105 mg/m^2, relationship Definite) | Constipation Adverse Events, Total (105 mg/m^2, relationship Possible) | Constipation Adverse Events, Total (105 mg/m^2, relationship Probable) | Constipation Adverse Events, Total (105 mg/m^2, relationship Unlikely) | Constipation Adverse Events, Total (140 mg/m^2, relationship Definite) | Constipation Adverse Events, Total (140 mg/m^2, relationship Possible) | Constipation Adverse Events, Total (185 mg/m^2, relationship Definite) | Constipation Adverse Events, Total (185 mg/m^2, relationship Unlikely) | Constipation Adverse Events, Total (245 mg/m^2, relationship Definite) | Constipation Adverse Events, Total (245 mg/m^2, relationship Unlikely) | Constipation Adverse Events, Total (325 mg/m^2, relationship Definite) | Constipation Adverse Events, Total (325 mg/m^2, relationship Not Related) | Constipation Adverse Events, Total (325 mg/m^2, relationship Unlikely) | Constipation Adverse Events, Total (430 mg/m^2, relationship Definite) | Constipation Adverse Events, Total (430 mg/m^2, relationship Not Related) | Constipation Adverse Events, Total (570 mg/m^2, relationship Not Related) | Constipation Adverse Events, Total (570 mg/m^2, relationship Possible)
5: Constipation Adverse Events, Grade 2 [3] | Constipation Adverse Events, Total [11] | Constipation Adverse Events, Grade 2 [16]
1: Constipation Adverse Events, Grade 2 [1] | Constipation Adverse Events, Grade 3 [1] | Constipation Adverse Events, Grade 3 [2] | Constipation Adverse Events, Grade 2 [4] | Constipation Adverse Events, Total [4] | Constipation Adverse Events, Grade 2 [5] | Constipation Adverse Events, Total [5] | Constipation Adverse Events, Grade 3 [6] | Constipation Adverse Events, Grade 3 [7] | Constipation Adverse Events, Total [7] | Constipation Adverse Events, Grade 1 [8] | Constipation Adverse Events, Total [8] | Constipation Adverse Events, Grade 2 [9] | Constipation Adverse Events, Total [9] | Constipation Adverse Events, Grade 1 [10] | Constipation Adverse Events, Total [10] | Constipation Adverse Events, Grade 3 [11] | Constipation Adverse Events, Grade 3 [12] | Constipation Adverse Events, Grade 1 [14] | Constipation Adverse Events, Grade 2 [15] | Constipation Adverse Events, Total [15] | Constipation Adverse Events, Grade 3 [16] | Constipation Adverse Events, Grade 1 [17] | Constipation Adverse Events, Total [17] | Constipation Adverse Events, Grade 1 [18] | Constipation Adverse Events, Grade 1 (570 mg/m^2, relationship Probable)
7: Constipation Adverse Events, Total [18]
2: Constipation Adverse Events, Total [1] | Constipation Adverse Events, Grade 2 [6] | Constipation Adverse Events, Grade 2 [12] | Constipation Adverse Events, Grade 2 [13] | Constipation Adverse Events, Total [13] | Constipation Adverse Events, Grade 2 [14] | Constipation Adverse Events, Grade 1 [16] | Constipation Adverse Events, Grade 3 [18]
3: Constipation Adverse Events, Grade 2 [2] | Constipation Adverse Events, Grade 3 [3] | Constipation Adverse Events, Total [6] | Constipation Adverse Events, Total [12] | Constipation Adverse Events, Total [14]
4: Constipation Adverse Events, Total [2] | Constipation Adverse Events, Grade 2 [11] | Constipation Adverse Events, Grade 2 [18]
8: Constipation Adverse Events, Total [3] | Constipation Adverse Events, Total [16]
